Source: ChEMBL document CHEMBL6074626, “Recent advances in triazole synthesis via click chemistry and their pharmacological applications: A review” (Bioorg Med Chem Lett, 2024)
Values after ≈ are worked out from the molar mass of the structure shown.

Legend:
[1] = molecular target: T1, Prostaglandin G/H synthase 1 (Ovis aries, UniProt P05979); experiment: Inhibition of ovine COX-1
T1 sequence (P05979 whole entry): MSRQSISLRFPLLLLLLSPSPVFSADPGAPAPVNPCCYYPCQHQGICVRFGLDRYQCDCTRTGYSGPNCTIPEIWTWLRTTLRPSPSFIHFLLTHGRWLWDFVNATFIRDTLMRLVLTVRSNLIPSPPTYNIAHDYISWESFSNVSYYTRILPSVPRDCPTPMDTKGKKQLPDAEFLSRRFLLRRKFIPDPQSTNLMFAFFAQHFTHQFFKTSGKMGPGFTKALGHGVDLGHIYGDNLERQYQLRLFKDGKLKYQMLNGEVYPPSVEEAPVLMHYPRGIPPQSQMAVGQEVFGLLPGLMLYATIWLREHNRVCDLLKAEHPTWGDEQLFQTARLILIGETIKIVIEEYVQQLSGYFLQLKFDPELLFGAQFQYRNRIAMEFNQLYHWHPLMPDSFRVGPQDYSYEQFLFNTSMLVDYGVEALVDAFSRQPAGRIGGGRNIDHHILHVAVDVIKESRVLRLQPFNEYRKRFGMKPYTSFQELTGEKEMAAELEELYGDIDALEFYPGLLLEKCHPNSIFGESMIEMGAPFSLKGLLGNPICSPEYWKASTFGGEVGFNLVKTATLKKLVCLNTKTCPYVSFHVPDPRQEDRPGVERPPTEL

[2] = molecular target: T2, Prostaglandin G/H synthase 2 (Homo sapiens, UniProt P35354); experiment: Inhibition of human recombinant COX-2
T2 sequence (P35354 whole entry): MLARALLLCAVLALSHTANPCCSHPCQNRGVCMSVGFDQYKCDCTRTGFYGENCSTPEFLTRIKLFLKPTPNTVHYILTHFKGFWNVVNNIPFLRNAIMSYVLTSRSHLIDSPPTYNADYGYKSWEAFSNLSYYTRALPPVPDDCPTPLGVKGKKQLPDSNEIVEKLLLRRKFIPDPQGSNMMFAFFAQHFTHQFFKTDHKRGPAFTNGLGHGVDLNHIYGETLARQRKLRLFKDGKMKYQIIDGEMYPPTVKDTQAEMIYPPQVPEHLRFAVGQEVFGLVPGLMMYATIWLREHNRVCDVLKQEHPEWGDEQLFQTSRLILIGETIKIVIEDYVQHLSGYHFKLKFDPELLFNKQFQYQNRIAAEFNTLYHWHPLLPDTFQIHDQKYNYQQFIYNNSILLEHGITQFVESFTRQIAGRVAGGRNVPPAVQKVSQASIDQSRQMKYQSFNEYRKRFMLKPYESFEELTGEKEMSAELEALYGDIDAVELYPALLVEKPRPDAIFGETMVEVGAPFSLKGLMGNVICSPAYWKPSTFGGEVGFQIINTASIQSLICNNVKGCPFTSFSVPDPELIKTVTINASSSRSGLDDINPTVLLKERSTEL

Bacillus cereus [3] = experiment: microbe, parasite or virus in culture; conditions: ATCC 14579
Description: Antibacterial activity against Bacillus cereus ATCC 14579 assessed as reduction in bacterial growth incubated for 18 to 24 hrs by broth microdilution method

Staphylococcus aureus [4] = experiment: microbe, parasite or virus in culture; conditions: NCTC 13616, 20 h
Description: Antibacterial activity against methicillin-resistant Staphylococcus aureus NCTC 13616 assessed as reduction in bacterial growth incubated for 20 hrs by broth micro-dilution method

Klebsiella pneumoniae = experiment: microbe, parasite or virus in culture; conditions: ATCC 43816, 20 h
Description: Antimicrobial activity against Klebsiella pneumoniae ATCC 43816 assessed as reduction in bacterial growth incubated for 20 hrs by broth microdilution analysis

Escherichia coli [5] = experiment: microbe, parasite or virus in culture; conditions: ATCC 8739, 20 h
Description: Antimicrobial activity against Escherichia coli ATCC 8739 assessed as reduction in bacterial growth incubated for 20 hrs by broth microdilution analysis

Bacillus subtilis = experiment: microbe, parasite or virus in culture; conditions: ATCC 6633, 20 h
Description: Antibacterial activity against Bacillus subtilis ATCC 6633 assessed as bacterial growth inhibition measured for 20 hrs by micro-broth dilution method

Proteus vulgaris = experiment: microbe, parasite or virus in culture; conditions: ATCC 13315, 24 h
Description: Antimicrobial activity against Proteus vulgaris ATCC 13315 assessed as microbial growth inhibition incubated for 24 hrs by broth microdilution method

[6] = Antioxidant activity assessed as DPPH radical scavenging activity incubated for 30 mins
Enterococcus faecalis [7] = experiment: microbe, parasite or virus in culture; conditions: ATCC 29212, 24 h
Description: Antibacterial activity against Enterococcus faecalis ATCC 29212 assessed as inhibition of bacterial growth incubated for 24 hrs by broth microdilution method

Proteus mirabilis = experiment: microbe, parasite or virus in culture; conditions: ATCC 35659
Description: Antibacterial activity against Proteus mirabilis ATCC 35659 assessed as reduction in bacterial growth incubated for 18 to 24 hrs by broth microdilution method

Bacillus cereus [8] = experiment: microbe, parasite or virus in culture; conditions: ATTC 10876
Description: Antibacterial activity against Bacillus cereus ATTC 10876 assessed as reduction in bacterial growth incubated for 18 to 24 hrs by broth microdilution method

Escherichia coli [9] = experiment: microbe, parasite or virus in culture; conditions: ATCC 25922
Description: Antibacterial activity against Escherichia coli ATCC 25922 assessed as reduction in bacterial growth incubated for 18 to 24 hrs by broth microdilution method

Staphylococcus aureus [10] = experiment: microbe, parasite or virus in culture; conditions: ATCC 25923
Description: Antibacterial activity against Staphylococcus aureus ATCC 25923 assessed as reduction in bacterial growth incubated for 18 to 24 hrs by broth microdilution method

Pseudomonas aeruginosa = experiment: microbe, parasite or virus in culture; conditions: ATCC 27853
Description: Antimicrobial activity against Pseudomonas aeruginosa ATCC 27853 assessed as inhibition of microbial growth by CLSI protocol based two-fold serial broth microdilution method

Enterococcus faecalis [11] = experiment: microbe, parasite or virus in culture; conditions: ATTC 29212, 24 h
Description: Antibacterial activity against Enterococcus faecalis ATCC 29212 assessed as reduction in bacterial growth incubated for 24 hrs by CLSI protocol based assay

Row | SMILES | IC50 [1] [µM] | IC50 [2] [µM] | MIC (Bacillus cereus [3]) [µg/mL] | MIC (Staphylococcus aureus [4]) [µg/mL] | MIC (Klebsiella pneumoniae) [µg/mL] | MIC (Escherichia coli [5]) [µg/mL] | MIC (Bacillus subtilis) [µg/mL] | MIC (Proteus vulgaris) [µg/mL] | other results
1 | O=C(/C=C/c1ccccc1)c1cc(-n2cc(CN3C(=O)C(=O)c4ccccc43)nn2)ccc1O | 7.4 | 0.037 | – | – | – | – | – | – | –
2 | CC(C)Cc1ccc(C(C)C(=O)c2ccc(OCc3cn(-c4ccccc4)nn3)cc2O)cc1 (stereo not drawn) | – | – | 12 (≈ 26.3 µM) | 12 (≈ 26.3 µM) | 12 (≈ 26.3 µM) | 12 (≈ 26.3 µM) | 12 (≈ 26.3 µM) | 12 (≈ 26.3 µM) | –
3 | CC(C)Cc1ccc(C(C)C(=O)c2ccc(OCc3cn(-c4ccccc4Cl)nn3)cc2O)cc1 (stereo not drawn) | – | – | 12 (≈ 24.5 µM) | 12 (≈ 24.5 µM) | 12 (≈ 24.5 µM) | 12 (≈ 24.5 µM) | 12 (≈ 24.5 µM) | 12 (≈ 24.5 µM) | –
4 | O=C(/C=C/c1ccc(Cl)cc1)c1cc(-n2cc(CN3C(=O)C(=O)c4ccccc43)nn2)ccc1O | 7.4 | 0.037 | – | – | – | – | – | – | –
5 | O=C(/C=C/c1ccc(O)cc1)c1cc(-n2cc(-c3ccccc3)nn2)ccc1O | 7.4 | 0.037 | – | – | – | – | – | – | –
6 | COc1ccc(/C=C/C(=O)c2cc(-n3cc(CN4C(=O)C(=O)c5ccccc54)nn3)ccc2O)cc1OC | 7.4 | 0.037 | – | – | – | – | – | – | –
7 | CC(C)Cc1ccc(C(C)C(=O)c2ccc(OCc3cn(-c4ccc(Br)cc4)nn3)cc2O)cc1 (stereo not drawn) | – | – | 12 (≈ 22.5 µM) | 12 (≈ 22.5 µM) | 12 (≈ 22.5 µM) | 12 (≈ 22.5 µM) | 12 (≈ 22.5 µM) | 12 (≈ 22.5 µM) | –
8 | CC(C)Cc1ccc(C(C)C(=O)c2ccc(OCc3cn(C4CCCCC4)nn3)cc2O)cc1 (stereo not drawn) | – | – | 12 (≈ 26 µM) | 12 (≈ 26 µM) | 12 (≈ 26 µM) | 12 (≈ 26 µM) | 12 (≈ 26 µM) | 12 (≈ 26 µM) | –
9 | CCCCc1cn(CCCOc2ccc(-c3cc(=O)c4ccccc4o3)cc2)nn1 | – | – | – | – | – | – | – | – | IC50 [6]: 29.7 µM
10 | CCCCCCCCCCCCCCn1nnc(-c2n[nH]c(=S)n2N)c1-c1n[nH]c(=S)n1N | – | – | – | – | – | – | – | – | MIC (Enterococcus faecalis [7]): 1 µM (≈ 0.494 µg/mL); MIC (Proteus mirabilis): 1 µM (≈ 0.494 µg/mL); MIC (Bacillus cereus [8]): 1 µM (≈ 0.494 µg/mL); MIC (Escherichia coli [9]): 1 µM (≈ 0.494 µg/mL); MIC (Staphylococcus aureus [10]): 1 µM (≈ 0.494 µg/mL); MIC (Pseudomonas aeruginosa): 1 µM (≈ 0.494 µg/mL); MIC (Enterococcus faecalis [11]): 1 µM (≈ 0.494 µg/mL)
11 | O=C(/C=C/c1ccc(O)cc1)c1cc(-n2cc(CN3C(=O)C(=O)c4ccccc43)nn2)ccc1O | 7.4 | 0.037 | – | – | – | – | – | – | –
12 | COc1ccc(/C=C/C(=O)c2cc(-n3cc(CN4C(=O)C(=O)c5ccccc54)nn3)ccc2O)cc1 | 7.4 | – | – | – | – | – | – | – | –
13 | CCCCCCn1cc(COc2ccc(C(=O)C(C)c3ccc(CC(C)C)cc3)c(O)c2)nn1 (stereo not drawn) | – | – | 12 (≈ 25.9 µM) | 12 (≈ 25.9 µM) | 12 (≈ 25.9 µM) | 12 (≈ 25.9 µM) | 12 (≈ 25.9 µM) | 12 (≈ 25.9 µM) | –
14 | CCCCCCCCn1cc(COc2ccc(C(=O)C(C)c3ccc(CC(C)C)cc3)c(O)c2)nn1 (stereo not drawn) | – | – | 12 (≈ 24.4 µM) | 12 (≈ 24.4 µM) | 12 (≈ 24.4 µM) | 12 (≈ 24.4 µM) | 12 (≈ 24.4 µM) | 12 (≈ 24.4 µM) | –
15 | O=c1cc(-c2ccc(OCCCn3cc(-c4cc5ccccc5c5ccccc45)nn3)cc2)oc2ccccc12 | – | – | – | – | – | – | – | – | IC50 [6]: 28.8 µM
16 | O=C(/C=C/c1ccc(Cl)cc1)c1cc(-n2cc(-c3ccccc3)nn2)ccc1O | 7.4 | 0.037 | – | – | – | – | – | – | –
17 | COc1ccc(/C=C/C(=O)c2cc(-n3cc(-c4ccccc4)nn3)ccc2O)cc1OC | 7.4 | 0.037 | – | – | – | – | – | – | –
18 | CCCCCCCCCCCCCCCCn1nnc(-c2n[nH]c(=S)n2N)c1-c1n[nH]c(=S)n1N | – | – | – | – | – | – | – | – | MIC (Enterococcus faecalis [7]): 1 µM (≈ 0.522 µg/mL); MIC (Proteus mirabilis): 1 µM (≈ 0.522 µg/mL); MIC (Bacillus cereus [8]): 1 µM (≈ 0.522 µg/mL); MIC (Escherichia coli [9]): 1 µM (≈ 0.522 µg/mL); MIC (Staphylococcus aureus [10]): 1 µM (≈ 0.522 µg/mL); MIC (Pseudomonas aeruginosa): 1 µM (≈ 0.522 µg/mL); MIC (Enterococcus faecalis [11]): 1 µM (≈ 0.522 µg/mL)
19 | CCCCCCCCCCCCn1cc(COc2ccc(C(=O)C(C)c3ccc(CC(C)C)cc3)c(O)c2)nn1 (stereo not drawn) | – | – | 12 (≈ 21.9 µM) | 12 (≈ 21.9 µM) | 12 (≈ 21.9 µM) | 12 (≈ 21.9 µM) | 12 (≈ 21.9 µM) | 12 (≈ 21.9 µM) | –
